Laboratory results as given in PubChem BioAssay AID256 (DTP/NCI, 2004).
Values joined by “and” are separate entries in the source; they are usually repeats but may differ in a detail not shown here. Equal entries are not always repeated. Inconclusive results and toxic doses are left out.

Test system: CD2F1 mice, L1210 leukemia ip, survival T/C
Assay: NCI In Vivo Anticancer Drug Screen. Data for tumor model L1210 Leukemia (intraperitoneal) in CD2F1 (CDF1) mice
Conditions: higher = longer survival
Method in brief: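 Antitumor effect is scored in animals hosting a serially transplanted tumor. Values compare compound-dosed animals against vehicle-only controls as a simple quotient.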

[1] = endpoint: mean survival time, dose: 100.0 mg/kg/injection, schedule: Q01DX001 (ip), vehicle: saline
[2] = endpoint: mean survival time, dose: 200.0 mg/kg/injection, schedule: Q01DX001 (ip), vehicle: saline
[3] = endpoint: mean survival time, dose: 100.0 mg/kg/injection, schedule: Q04DX003 (ip), vehicle: saline with Tween-80
[4] = endpoint: mean survival time, dose: 200.0 mg/kg/injection, schedule: Q04DX003 (ip), vehicle: saline with Tween-80
[5] = endpoint: mean survival time, dose: 400.0 mg/kg/injection, schedule: Q04DX003 (ip), vehicle: saline with Tween-80
[6] = endpoint: mean survival time, dose: 100.0 mg/kg/injection, schedule: Q01DX001 (ip), vehicle: saline with Tween-80
[7] = endpoint: mean survival time, dose: 50.0 mg/kg/injection, schedule: Q01DX009 (ip), vehicle: saline with Tween-80
[8] = endpoint: mean survival time, dose: 100.0 mg/kg/injection, schedule: Q01DX009 (ip), vehicle: saline with Tween-80
[9] = endpoint: mean survival time, dose: 200.0 mg/kg/injection, schedule: Q01DX009 (ip), vehicle: saline with Tween-80

`CCCCCCCCCCCCCC[N+](C)(C)CC#CC[N+](C)(C)CCCCCCCCCCCCCC` was tested, and the T/C (endpoint: mean survival time, dose: 25.0 mg/kg/injection, schedule: Q04DX002 (ip), vehicle: saline with Tween-80) was 104 % of control and the T/C (endpoint: mean survival time, dose: 50.0 mg/kg/injection, schedule: Q04DX002 (ip), vehicle: saline with Tween-80) was 89 % of control.

`CC(=O)O.[Tl]` was tested, and the T/C (endpoint: mean survival time, dose: 20.0 mg/kg/injection, schedule: Q01DX001 (ip), vehicle: saline) was 112 % of control, the T/C (endpoint: mean survival time, dose: 80.0 mg/kg/injection, schedule: Q01DX001 (ip), vehicle: saline) was 97 % of control and the T/C [1] was 100 % of control. For the same compound, the T/C [2] was 100 % of control.

For `Cc1cccc(NC(=O)NCCBr)c1`, the T/C [3] was 100 % of control, the T/C [4] was 88 % of control and the T/C [5] was 92 % of control.

With `C[C@]12CCC(=O)C=C1CC[C@@H]1[C@@H]2[C@@H](O)C[C@@]2(C)[C@H]1CC[C@]2(O)C(=O)COP(=O)(O)OCC1OC(n2ccc(N)nc2=O)C(O)C1O` (stereo not given in full) the T/C (endpoint: mean survival time, dose: 5.0 mg/kg/injection, schedule: Q01DX005 (ip), vehicle: other) was 104 % of control, the T/C (endpoint: mean survival time, dose: 10.0 mg/kg/injection, schedule: Q01DX005 (ip), vehicle: other) was 110 % of control and the T/C (endpoint: mean survival time, dose: 15.0 mg/kg/injection, schedule: Q01DX005 (ip), vehicle: other) was 115 % of control. The T/C (endpoint: mean survival time, dose: 120.0 mg/kg/injection, schedule: Q01DX005 (ip), vehicle: other) was 150 % of control and the T/C (endpoint: mean survival time, dose: 240.0 mg/kg/injection, schedule: Q01DX005 (ip), vehicle: other) was 162 % of control.

With `CC(=O)c1ccc2c3c(cccc13)CC2` the T/C [6] was 94 % of control, the T/C (endpoint: mean survival time, dose: 200.0 mg/kg/injection, schedule: Q01DX001 (ip), vehicle: saline with Tween-80) was 96 % of control and the T/C (endpoint: mean survival time, dose: 400.0 mg/kg/injection, schedule: Q01DX001 (ip), vehicle: saline with Tween-80) was 110 % of control.

`Cc1cc(C)c2[nH]c(=O)c(C)c(C)c2c1` was tested, and the T/C [1] was 96 % of control, the T/C [2] was 96 % of control and the T/C (endpoint: mean survival time, dose: 400.0 mg/kg/injection, schedule: Q01DX001 (ip), vehicle: saline) was 93 % of control.

In the case of `Cc1cc(=O)ncn1C`, the T/C (endpoint: mean survival time, dose: 100.0 mg/kg/injection, schedule: Q04DX002 (ip), vehicle: saline) is reported as 101 % of control, the T/C (endpoint: mean survival time, dose: 200.0 mg/kg/injection, schedule: Q04DX002 (ip), vehicle: saline) is reported as 97 % of control and the T/C (endpoint: mean survival time, dose: 400.0 mg/kg/injection, schedule: Q04DX002 (ip), vehicle: saline) is reported as 101 % of control.

`Cc1c(Cl)cccc1NC(=O)Nc1ccc(F)c([N+](=O)[O-])c1` was tested, and the T/C (endpoint: mean survival time, dose: 50.0 mg/kg/injection, schedule: Q01DX009 (ip), vehicle: Klucel (hydroxypropylcellulose) (HPC)) was 91 % of control, the T/C (endpoint: mean survival time, dose: 100.0 mg/kg/injection, schedule: Q01DX009 (ip), vehicle: Klucel (hydroxypropylcellulose) (HPC)) was 102 % of control and the T/C (endpoint: mean survival time, dose: 200.0 mg/kg/injection, schedule: Q01DX009 (ip), vehicle: Klucel (hydroxypropylcellulose) (HPC)) was 98 % of control.

For `O=[N+]([O-])O.S=C([SH2+])[n+]1ccccc1.S=C([SH2+])[n+]1ccccc1.[NH-]C1CCCCC1[NH-].[Pt+4]`, the T/C (endpoint: median survival time, dose: 3.12 mg/kg/injection, schedule: Q04DX003 (ip), vehicle: saline) was 101 % of control, the T/C (endpoint: median survival time, dose: 6.25 mg/kg/injection, schedule: Q04DX003 (ip), vehicle: saline) was 109 % of control and the T/C (endpoint: median survival time, dose: 12.5 mg/kg/injection, schedule: Q04DX003 (ip), vehicle: saline) was 100 % of control. For the same compound, the T/C (endpoint: median survival time, dose: 25.0 mg/kg/injection, schedule: Q04DX003 (ip), vehicle: saline) was 90 % of control, the T/C (endpoint: median survival time, dose: 50.0 mg/kg/injection, schedule: Q04DX003 (ip), vehicle: saline) was 95 % of control and the T/C (endpoint: median survival time, dose: 100.0 mg/kg/injection, schedule: Q04DX003 (ip), vehicle: saline) was 106 % of control. The T/C (endpoint: median survival time, dose: 200.0 mg/kg/injection, schedule: Q04DX003 (ip), vehicle: saline) was 109 % of control.

For `O=C(O)c1cccc2c1-c1c(cccc1[N+](=O)[O-])C2`, the T/C [7] was 96 % of control, the T/C [8] was 97 % of control and the T/C [3] was 101 % of control. For the same compound, the T/C [9] was 91 % of control and the T/C [4] was 100 % of control.

For `O=C(O)C(=O)O.[NH-]C1CCCCC1C1CCCCC1[NH-].[Pt+2]` (stereo not given), the T/C (endpoint: mean survival time, dose: 3.12 mg/kg/injection, schedule: Q04DX003 (ip), vehicle: distilled water + Tween-80) was 112 % of control, the T/C (endpoint: mean survival time, dose: 6.25 mg/kg/injection, schedule: Q04DX003 (ip), vehicle: distilled water + Tween-80) was 119 % of control and the T/C (endpoint: mean survival time, dose: 25.0 mg/kg/injection, schedule: Q04DX003 (ip), vehicle: distilled water + Tween-80) was 160 % of control. For the same compound, the T/C (endpoint: mean survival time, dose: 50.0 mg/kg/injection, schedule: Q04DX003 (ip), vehicle: distilled water + Tween-80) was 238 % of control.

`S=C1SCCN1Cc1ccccc1` was tested, and the T/C [8] was 104 % of control, the T/C [3] was 106 % of control and the T/C [9] was 101 % of control. For the same compound, the T/C [4] was 101 % of control, the T/C (endpoint: mean survival time, dose: 400.0 mg/kg/injection, schedule: Q01DX009 (ip), vehicle: saline with Tween-80) was 104 % of control and the T/C [5] was 101 % of control.

`Brc1ccc(C[N+]23CN4CN(CN(C4)C2)C3)cc1` was tested, and the T/C (endpoint: mean survival time, dose: 12.5 mg/kg/injection, schedule: Q01DX009 (ip), vehicle: saline with Tween-80) was 102 % of control, the T/C (endpoint: mean survival time, dose: 25.0 mg/kg/injection, schedule: Q01DX009 (ip), vehicle: saline with Tween-80) was 102 % of control and the T/C [7] was 97 % of control. For the same compound, the T/C [8] was 96 % of control and the T/C [9] was 94 % of control.

For `Nc1nc(N)c(-c2ccc(Cl)cc2)c(COc2ccc(CCC3(CCl)OCCO3)cc2)n1`, the T/C (endpoint: mean survival time, dose: 25.0 mg/kg/injection, schedule: Q01DX001 (ip), vehicle: saline with Tween-80) was 101 % of control, the T/C (endpoint: mean survival time, dose: 50.0 mg/kg/injection, schedule: Q01DX001 (ip), vehicle: saline with Tween-80) was 101 % of control and the T/C [6] was 108 % of control.

In the case of `NC1CCC(C(=O)O)CC1` (stereo not given), the T/C (endpoint: mean survival time, dose: 25.0 mg/kg/injection, schedule: Q01DX009 (ip), vehicle: saline) is reported as 105 % of control, the T/C (endpoint: mean survival time, dose: 50.0 mg/kg/injection, schedule: Q01DX009 (ip), vehicle: saline) is reported as 97 % of control and 105 % of control and the T/C (endpoint: mean survival time, dose: 100.0 mg/kg/injection, schedule: Q01DX009 (ip), vehicle: saline) is reported as 94 % of control and 102 % of control. The T/C (endpoint: mean survival time, dose: 200.0 mg/kg/injection, schedule: Q01DX009 (ip), vehicle: saline) was 102 % of control.

`O=P1(OCCCCCl)NCCCO1` (stereo not given) was tested, and the T/C (endpoint: mean survival time, dose: 62.5 mg/kg/injection, schedule: Q01DX001 (ip), vehicle: water) was 103 % of control, the T/C (endpoint: mean survival time, dose: 125.0 mg/kg/injection, schedule: Q01DX001 (ip), vehicle: water) was 104 % of control and the T/C (endpoint: mean survival time, dose: 250.0 mg/kg/injection, schedule: Q01DX001 (ip), vehicle: water) was 103 % of control. For the same compound, the T/C (endpoint: mean survival time, dose: 500.0 mg/kg/injection, schedule: Q01DX001 (ip), vehicle: water) was 108 % of control and the T/C (endpoint: mean survival time, dose: 750.0 mg/kg/injection, schedule: Q01DX001 (ip), vehicle: water) was 101 % of control.

`Nc1ccc(-c2nc(=S)c3cn[nH]c3[nH]2)cc1` was tested, and the T/C (endpoint: mean survival time, dose: 12.5 mg/kg/injection, schedule: Q01DX005 (ip), vehicle: other) was 92 % of control, the T/C (endpoint: mean survival time, dose: 25.0 mg/kg/injection, schedule: Q01DX005 (ip), vehicle: other) was 94 % of control and the T/C (endpoint: mean survival time, dose: 50.0 mg/kg/injection, schedule: Q01DX005 (ip), vehicle: other) was 91 % of control. For the same compound, the T/C (endpoint: mean survival time, dose: 100.0 mg/kg/injection, schedule: Q01DX005 (ip), vehicle: other) was 91 % of control and the T/C (endpoint: mean survival time, dose: 200.0 mg/kg/injection, schedule: Q01DX005 (ip), vehicle: other) was 95 % of control.
